How the values were obtained:
[1] = xn = mol fraction of the nth substance listed; settings: 100 kPa, Liquid; for speed of sound: Frequency=3 MHz, Single path-length method; for mass density: Vibrating tube method
[2] = refractive index (Na D-line) (dimensionless); xn = mol fraction of the nth substance listed; settings: 100 kPa, Liquid, Standard Abbe refractometry

COCCO [2-methoxyethan-1-ol] + CCOC(=O)OCC
Settings | mass density, [1] [kg/m3] | refractive index, [2] | speed of sound, [1] [m/s]
298.15 K, x2 = 0 | 960.32 | 1.4001 | 1342.1
298.15 K, x2 = 0.0645 | 960.64 | 1.3989 | 1322.5
298.15 K, x2 = 0.1406 | 961.01 | 1.3976 | 1302.2
298.15 K, x2 = 0.2248 | 961.49 | 1.3963 | 1282.2
298.15 K, x2 = 0.3025 | 961.99 | 1.3951 | 1265.8
298.15 K, x2 = 0.3928 | 962.65 | 1.3936 | 1248.7
298.15 K, x2 = 0.4994 | 963.51 | 1.3916 | 1231.2
298.15 K, x2 = 0.6007 | 964.44 | 1.3897 | 1216.9
298.15 K, x2 = 0.7212 | 965.66 | 1.3874 | 1202.5
298.15 K, x2 = 0.8496 | 967.12 | 1.3851 | 1189.7
303.15 K, x2 = 0 | 955.71 | 1.3981 | 1324.7
303.15 K, x2 = 0.0645 | 955.91 | 1.3969 | 1304.6
303.15 K, x2 = 0.1406 | 956.16 | 1.3957 | 1283.8
303.15 K, x2 = 0.2248 | 956.52 | 1.3943 | 1263.4
303.15 K, x2 = 0.3025 | 956.91 | 1.3931 | 1246.7
303.15 K, x2 = 0.3928 | 957.45 | 1.3915 | 1229.4
303.15 K, x2 = 0.4994 | 958.2 | 1.3895 | 1211.7
303.15 K, x2 = 0.6007 | 959.03 | 1.3876 | 1197.2
303.15 K, x2 = 0.7212 | 960.16 | 1.3853 | 1182.5
303.15 K, x2 = 0.8496 | 961.54 | 1.3829 | 1169.5
308.15 K, x2 = 0 | 951.08 | 1.3961 | 1307.4
308.15 K, x2 = 0.0645 | 951.16 | 1.395 | 1286.7
308.15 K, x2 = 0.1406 | 951.29 | 1.3938 | 1265.4
308.15 K, x2 = 0.2248 | 951.51 | 1.3924 | 1244.7
308.15 K, x2 = 0.3025 | 951.79 | 1.3911 | 1227.7
308.15 K, x2 = 0.3928 | 952.22 | 1.3894 | 1210.2
308.15 K, x2 = 0.4994 | 952.85 | 1.3875 | 1192.4
308.15 K, x2 = 0.6007 | 953.59 | 1.3855 | 1177.7
308.15 K, x2 = 0.7212 | 954.63 | 1.3832 | 1162.7
308.15 K, x2 = 0.8496 | 955.94 | 1.3807 | 1149.3
313.15 K, x2 = 0 | 946.42 | 1.3943 | 1290
313.15 K, x2 = 0.0645 | 946.39 | 1.3931 | 1268.8
313.15 K, x2 = 0.1406 | 946.49 | 1.3918 | 1247
313.15 K, x2 = 0.2248 | 946.58 | 1.3904 | 1226
313.15 K, x2 = 0.3025 | 946.66 | 1.389 | 1208.8
313.15 K, x2 = 0.3928 | 946.97 | 1.3874 | 1191.2
313.15 K, x2 = 0.4994 | 947.49 | 1.3854 | 1173.2
313.15 K, x2 = 0.6007 | 948.13 | 1.3834 | 1158.3
313.15 K, x2 = 0.7212 | 949.08 | 1.3811 | 1143
313.15 K, x2 = 0.8496 | 950.31 | 1.3786 | 1129.4
318.15 K, x2 = 0 | 941.72 | 1.3922 | 1272.7
318.15 K, x2 = 0.0645 | 941.57 | 1.3913 | 1251
318.15 K, x2 = 0.1406 | 941.44 | 1.39 | 1228.8
318.15 K, x2 = 0.2248 | 941.41 | 1.3885 | 1207.4
318.15 K, x2 = 0.3025 | 941.48 | 1.3871 | 1190.1
318.15 K, x2 = 0.3928 | 941.67 | 1.3853 | 1172.3
318.15 K, x2 = 0.4994 | 942.07 | 1.3833 | 1154.1
318.15 K, x2 = 0.6007 | 942.61 | 1.3814 | 1139.1
318.15 K, x2 = 0.7212 | 943.46 | 1.379 | 1123.5
318.15 K, x2 = 0.8496 | 944.62 | 1.3764 | 1109.7
323.15 K, x2 = 0 | 936.89 | 1.3902 | 1255.4
323.15 K, x2 = 0.0645 | 936.71 | 1.3894 | 1233.2
323.15 K, x2 = 0.1406 | 936.46 | 1.3881 | 1210.6
323.15 K, x2 = 0.2248 | 936.29 | 1.3865 | 1188.9
323.15 K, x2 = 0.3025 | 936.25 | 1.385 | 1171.4
323.15 K, x2 = 0.3928 | 936.34 | 1.3832 | 1153.5
323.15 K, x2 = 0.4994 | 936.62 | 1.3812 | 1135.1
323.15 K, x2 = 0.6007 | 937.08 | 1.3792 | 1119.9
323.15 K, x2 = 0.7212 | 937.86 | 1.3768 | 1104.2
323.15 K, x2 = 0.8496 | 938.96 | 1.3743 | 1090

CCOCCO [2-ethoxyethan-1-ol] + CCOC(=O)OCC
Settings | mass density, [1] [kg/m3] | refractive index, [2] | speed of sound, [1] [m/s]
298.15 K, x2 = 0 | 925.54 | 1.4055 | 1302.8
298.15 K, x2 = 0.0957 | 929.94 | 1.4036 | 1287
298.15 K, x2 = 0.1529 | 932.54 | 1.4025 | 1278.3
298.15 K, x2 = 0.2624 | 937.43 | 1.4003 | 1262.2
298.15 K, x2 = 0.3484 | 941.21 | 1.3985 | 1250
298.15 K, x2 = 0.4447 | 945.38 | 1.3963 | 1236.7
298.15 K, x2 = 0.5468 | 949.76 | 1.3939 | 1223.5
298.15 K, x2 = 0.6539 | 954.3 | 1.3912 | 1210.8
298.15 K, x2 = 0.7721 | 959.31 | 1.3882 | 1198.3
298.15 K, x2 = 0.8793 | 963.87 | 1.3855 | 1188
303.15 K, x2 = 0 | 920.99 | 1.4042 | 1285
303.15 K, x2 = 0.0957 | 925.24 | 1.4024 | 1268.9
303.15 K, x2 = 0.1529 | 927.76 | 1.4012 | 1259.8
303.15 K, x2 = 0.2624 | 932.5 | 1.3989 | 1243.4
303.15 K, x2 = 0.3484 | 936.17 | 1.397 | 1230.7
303.15 K, x2 = 0.4447 | 940.24 | 1.3947 | 1217.3
303.15 K, x2 = 0.5468 | 944.5 | 1.3921 | 1204
303.15 K, x2 = 0.6539 | 948.94 | 1.3894 | 1191.1
303.15 K, x2 = 0.7721 | 953.83 | 1.3862 | 1178.3
303.15 K, x2 = 0.8793 | 958.31 | 1.3834 | 1167.8
308.15 K, x2 = 0 | 916.41 | 1.4028 | 1267.3
308.15 K, x2 = 0.0957 | 920.51 | 1.4011 | 1250.7
308.15 K, x2 = 0.1529 | 922.94 | 1.3999 | 1241.3
308.15 K, x2 = 0.2624 | 927.54 | 1.3975 | 1224.6
308.15 K, x2 = 0.3484 | 931.11 | 1.3954 | 1211.9
308.15 K, x2 = 0.4447 | 935.08 | 1.393 | 1198.3
308.15 K, x2 = 0.5468 | 939.21 | 1.3904 | 1184.7
308.15 K, x2 = 0.6539 | 943.54 | 1.3875 | 1171.6
308.15 K, x2 = 0.7721 | 948.31 | 1.3843 | 1158.4
308.15 K, x2 = 0.8793 | 952.72 | 1.3813 | 1147.6
313.15 K, x2 = 0 | 911.8 | 1.4016 | 1249.6
313.15 K, x2 = 0.0957 | 915.76 | 1.3999 | 1232.5
313.15 K, x2 = 0.1529 | 918.09 | 1.3987 | 1223
313.15 K, x2 = 0.2624 | 922.55 | 1.3961 | 1205.9
313.15 K, x2 = 0.3484 | 926 | 1.3939 | 1193
313.15 K, x2 = 0.4447 | 929.84 | 1.3914 | 1179.3
313.15 K, x2 = 0.5468 | 933.88 | 1.3886 | 1165.6
313.15 K, x2 = 0.6539 | 938.09 | 1.3857 | 1152.1
313.15 K, x2 = 0.7721 | 942.77 | 1.3823 | 1138.6
313.15 K, x2 = 0.8793 | 947.11 | 1.3792 | 1127.5
318.15 K, x2 = 0 | 907.15 | 1.4001 | 1232
318.15 K, x2 = 0.0957 | 910.93 | 1.3986 | 1214.4
318.15 K, x2 = 0.1529 | 913.21 | 1.3973 | 1204.6
318.15 K, x2 = 0.2624 | 917.51 | 1.3946 | 1187.2
318.15 K, x2 = 0.3484 | 920.86 | 1.3923 | 1174.3
318.15 K, x2 = 0.4447 | 924.57 | 1.3897 | 1160.4
318.15 K, x2 = 0.5468 | 928.49 | 1.3868 | 1146.6
318.15 K, x2 = 0.6539 | 932.6 | 1.3838 | 1132.8
318.15 K, x2 = 0.7721 | 937.19 | 1.3804 | 1119
318.15 K, x2 = 0.8793 | 941.45 | 1.377 | 1107.8
323.15 K, x2 = 0 | 902.46 | 1.3988 | 1214.3
323.15 K, x2 = 0.0957 | 906.11 | 1.3973 | 1196.3
323.15 K, x2 = 0.1529 | 908.28 | 1.396 | 1186.3
323.15 K, x2 = 0.2624 | 912.44 | 1.3931 | 1168.7
323.15 K, x2 = 0.3484 | 915.7 | 1.3907 | 1155.6
323.15 K, x2 = 0.4447 | 919.3 | 1.388 | 1141.6
323.15 K, x2 = 0.5468 | 923.1 | 1.3851 | 1127.5
323.15 K, x2 = 0.6539 | 927.1 | 1.382 | 1113.6
323.15 K, x2 = 0.7721 | 931.58 | 1.3784 | 1099.6
323.15 K, x2 = 0.8793 | 935.76 | 1.3749 | 1088.1
